# Patent US8614218B2, “Fused bicyclic pyrimidines” (Bayer Intellectual Property GmbH, priority 2007, dated 2013)
# Experiments:
# Format in all cases: cell-based
# [1] = system: A549 cells; assay: Cellular proliferation/cytotoxicity assay (Alamar Blue), A549; conditions: Homo sapiens, 72 h, Alamar Blue (Resazurin), read-out: Anti-proliterative/Cytotoxic activity (A549 cells)
# Experimental: (§1) Cellular Proliferation/Cytotoxicity Assay:
# (§2) The anti-proliferative activity of the compounds as described herein, is evaluated using the OvCAR3, HCT116 and A549 cell lines and the Alamar Blue (Resazurin) cell viability assay (O'Brien et al. Eur J Biochem 267, 5421-5426, 2000). Resazurin is reduced to the fluorescent resorufin by cellular dehydrogenase activity, correlating with viable, proliferating cells. Test compounds are dissolved as 10 mM solutions in DMSO and subsequently diluted. Cells like HCT116 or A549 cells were seeded into 96 well flat bottom plates at a density of 10000 cells/well (OvCAR3 cells), 1000 cells/well (HCT116 cells) or 2000 cells/well (A549 cells) in a volume of 200 μl/well. 24 hours after seeding, 1 μl each of the compound dilutions are added into each well of the 96 well plates. Each compound dilution is tested as at least as duplicates. Wells containing untreated control cells were filled with 200 μl DMEM (Dulbecco's Modified Eagle Medium) containing 0.5 vol % v:v DMSO. The cells are then incubated with the substances for 72 h at 37° C. in a humidified atmosphere containing 5 vol % CO2. To determine the viability of the cells, 20 μl of a Resazurin solution (90 mg/l) are added. After 4 h incubation at 37° C., the fluorescence is measured by extinction at λ=544 nm and an emission of λ=590 nm (Wallac Victor2; Perkin Elmer, USA). For the calculation of the cell viability, the emission value from untreated cells is set as 100% viability and the fluorescence intensity of treated cells are set in relation to the values of untreated cells. Viabilities are expressed as % values. The corresponding IC50 values of the compounds for cytotoxic activity are determined from the concentration-effect curves by means of non-linear regression. The analysis of the data is performed using a biostatistical program (GraphPad Prism, USA).
# (§3) Representative IC50 values for anti-proliferative/cytotoxic potency determined in the aforementioned assay follow from the following table, in which the numbers of the compound correspond to the numbers of the examples.
# [2] = system: phospho-GSK3 (Ser9); assay: Cellular pGSK3 assay (phospho-GSK3 ELISA); conditions: Homo sapiens, MCF7 cells, 48 h incubation, read-out: Cellular pGSK3 pathway assay
# Experimental: In order to study the cellular activity of the compounds according to the present invention, an ELISA-based assay has been established for the phosphorylated protein glycogen synthetase kinase 3 (GSK3). The assay is based on a solid phase sandwich ELISA that detects endogenous levels of phosphorylated GSK3 using a phospho-GSK3 (Ser9) specific antibody (BioSource International, Inc.; Catalog #KHO0461). After incubation with cell lysates, the coated antibody captures the phosphorylated GSK3 protein. Following extensive washing, GSK3 polyclonal antibody is added to detect the captured phospho-GSK3 protein. Secondary antibody (anti-rabbit IgG-HRP) is then used to recognize the bound detection antibody. After the second incubation and washing to remove all the excess anti-rabbit IgG-HRP, a substrate solution is added, which is acted upon by the bound enzyme to produce color. The intensity of this colored product is directly proportional to the concentration of GSK-3β [pS9] present in the original specimen. MCF7 cells (ATCC HTB-22) were seeded into 96 well fate bottom plates at a density of 10000 cells/well. After 24 h 1 μl each of the compound dilutions (test compounds were dissolved as 10 mM solutions in dimethylsulfoxide (DMSO) and subsequently diluted) were added into each well of the 96 well plates and incubated for 48 h at 37° C. in a humidified atmosphere containing 5% CO2. Cells were harvested and lysed in cell extraction buffer (10 mM Tris, pH 7.4, 100 mM NaCl, 1 mM EDTA, 1 mM EGTA, 1 mM NaF, 20 mM Na4P2O7, 2 mM Na3VO4, 1% Triton X-100, 10 vol % glycerol, 0.1 vol % SDS, 0.5 vol % deoxycholate, 1 mM phenylmethylsulfonylfluoride (PMSF)). The lysate were centrifuged for 10 min. at 4° C. and the supernatant were transferred to a new tube. 50 μl of sample diluent (standard diluent buffer, Biosource) were added and 100 μl of cell lysate transferred into the tube and vortexed. 100 μl of each diluted cell lysate were added to the appropriate ELISA well plate and incubated for 3 h at room temperature. The plates were washed 4 times with 1× wash buffer (Biosource). 50 μl of detection antibody (GSK3 (Ser9) detection antibody; BioSource) were added to each well and incubated for 30 min. at room temperature. The washing procedure was repeated between each step. 100 μl of HRP-linked secondary antibody (anti-mouse IgG HRP-linked antibody) were added to each well and incubated for 30 min. at room temperature. 100 μl of TMB substrate (0.05 vol % 3,3′,5,5′ tetramethylbenzidine, 0.1 vol % hydrogen peroxide, complex polypeptides in a buffered solution; Biosource) were added to each well and incubated for 30 min. at room temperature. Finally 100 μl of Stop solution (0.05 vol % α and β unsaturated carbonyl compound) were added to each well and the plate were shaked gently for a few seconds. The absorbance was measured at λ=450 nm (Wallac Victor2; Perkin Elmer, USA) within 30 min. after adding the stop solution.
# The analysis of the data was performed using a statistical program (Excel; Microsoft, USA) and the IC50 of pGSK3 inhibition was determined.
# [3] = system: phospho-Akt (Ser473); assay: Cellular PI3K/Akt pathway assay (phospho-Akt ELISA); conditions: Homo sapiens, MCF7 cells, β-Heregulin stimulated, 48 h incubation
# Excerpt: Cellular PI3K/Akt Pathway Assay
# In order to study the cellular activity of the compounds according to the present invention, an Enzyme Linked Immunosorbent Assay (ELISA)-based assay has been used specific phospho-AKT. The assay is based on a Sandwich ELISA kit (PathScan™ Phospho-Akt1 (Ser473); Cell Signaling, USA; #7160). The ELISA Kit detects endogenous levels of phosphorylated Akt protein. A phospho-Akt (Ser473) antibody (Cell Signaling, USA; #9271) has been coated onto the microwells. After incubation with cell lysates, the coated antibody captures the phosphorylated Akt protein. Following extensive washing, Akt1 monoclonal antibody (Cell Signaling, USA; #2967) is added to detect the captured phospho-Akt1 protein. HRP-linked anti-mouse antibody (HRP: horseradish peroxidase; Cell Signaling, USA; #7076) is then used to recognize the bound detection antibody. HRP substrate (=3,3′,5,5′-tetramethylbenzidine (TMB); Cell Signaling, USA; #7160) is added to develop colour. The magnitude of optical density for this developed color is proportional to the quantity of phosphorylated Akt protein.
# MCF7 cells (ATCC HTB-22) are seeded into 96 well fate bottom plates at a density of 10000 cells/well. 24 hours after seeding, the cells are serum starved using low-serum medium (IMEM media including 0.1% charcoal treated FCS (FCS: fetal calf serum)). After 24 hours 1 μl each of the compound dilutions (test compounds were dissolved as 10 mM solutions in dimethylsulfoxide (DMSO) and subsequently diluted) are added into each well of the 96 well plates and incubated for 48 h at 37° C. in a humidified atmosphere containing 5% CO2. To stimulate Akt phosphorylation, β-Heregulin (20 ng/ml β-HRG) is added in parallel to the compounds. Wells containing unstimulated control cells (no β-Heregulin stimulation) are incubated with or without the diluted compound. Wells containing untreated control cells (no compound) are filled with medium containing 0.5% v:v DMSO and are or are not stimulated with β-Heregulin.
# Cells are harvested and lysed with brief sonification in 1× cell lysis buffer (20 mM Tris (pH7.5), 150 mM NaCl, 1 mM ethylene diaminetetraacetate (EDTA), 1 mM ethylene glycolbis(2-aminoethyl)-N,N,N′,N′-tetraacetic acid (EGTA), 1 vol % Triton X-100, 2.5 mM sodium pyrophosphate, 1 mM β-glycerolphosphate, 1 mM Na3VO4, 1 μg/ml leupeptin). The lysate is centrifuged for 10 min. at 4° C. and the supernatant is transferred to a new tube. 100 μl of sample diluent (0.1 vol % Tween-20, 0.1 vol % sodium azide in phosphate buffered saline (PBS)) are added to a microcentrifuge tube and 100 μl of cell lysate are transferred into the tube and vortexed. 100 μl of each diluted cell lysate are added to the appropriate ELISA well, and incubated overnight at 4° C. The plates are washed 4 times with 1× wash buffer (1 vol % tween-20, 0.33 vol % thymol, in PBS). Next 100 μl of detection antibody (Akt1 (2H10) monoclonal detection antibody; Cell Signaling, USA; #2967) are added to each well and incubation continued for 1 h at 37° C. The washing procedure is repeated between each step. 100 μl of secondary antibody (anti-mouse IgG HRP-linked antibody; Cell Signaling, USA; #7076) are added to each well and incubated for 30 min. at 37° C. Than, 100 μl of TMB substrate (0.05% 3,3′,5,5′ tetramethylbenzidine, 0.1% hydrogen peroxide, complex polypeptides in a buffered solution; Cell Signaling, USA; #7160) are added to each well and incubated for 30 min. at 25° C. Finally 100 μl of STOP solution (0.05 vol % α and β unsaturated carbonyl compound) are added to each well and the plate are shaked gently. The absorbance is measured at λ=450 nm (Wallac Victor2; Perkin Elmer, USA) within 30 min. after adding the STOP solution. The analysis of the data is performed using a statistical program (Excel; Microsoft, USA). Preferred compounds show an inhibitory activity towards Akt phosphorylation below 10 μM.
# [4] = system: OvCAR3 cells; assay: Cellular proliferation/cytotoxicity assay (Alamar Blue), OvCAR3; conditions: Homo sapiens, OVCAR-3, 72 h, Alamar Blue (Resazurin), read-out: Anti-proliferative/Cytotoxic activity (OvCAR3 cells)
# Experimental: as §1, §2, §3
IC50 [2] [µM],IC50 [3] [µM],SMILES,IC50 [1] [µM],IC50 [4] [µM]
1 to 10,,"CC(C)c1nc2nc(-c3ccc(CN4CCC(c5n[nH]c(-c6ccccn6)n5)CC4)cc3)c(-c3ccccc3)cn2n1 [Example 28, 2-Isopropyl-6-phenyl-5-(4-{[4-(5-pyridin-2-yl-1H-1,2,4-triazol-3-yl)piperidin-1-yl]methyl}phenyl)[1,2,4]triazolo[1,5-a]pyrimidine]",< 10,
,< 1,"Cc1nc2nc(-c3ccc(CN4CCC(c5n[nH]c(-c6ccccn6)n5)CC4)cc3)c(-c3ccccc3)c(C)n2n1 [Example 39, 2,7-Dimethyl-6-phenyl-5-(4-{[4-(5-pyridin-2-yl-1H-1,2,4-triazol-3-yl)piperidin-1-yl]methyl}phenyl)[1,2,4]triazolo[1,5-a]pyrimidine]",< 10,
,< 1,"c1ccc(-c2nc(C3CCN(Cc4ccc(-c5nc6ccnn6cc5-c5ccsc5)cc4)CC3)n[nH]2)nc1 [Example 50, 5-(4-{[4-(5-Pyridin-2-yl-1H-1,2,4-triazol-3-yl)piperidin-1-yl]methyl}phenyl)-6-(3-thienyl)pyrazolo[1,5-a]pyrimidine]",< 10,
,< 1,"Cc1cc2nc(-c3ccc(CN4CCC(c5n[nH]c(-c6ccccn6)n5)CC4)cc3)c(-c3ccccc3)c(C)n2n1 [Example 49, 2,7-Dimethyl-6-phenyl-5-(4-{[4-(5-pyridin-2-yl-1H-1,2,4-triazol-3-yl)piperidin-1-yl]methyl}phenyl)pyrazolo[1,5-a]pyrimidine]",< 10,
,,"c1ccc(-c2cn3nc(C4CCC4)nc3nc2-c2ccc(CN3CCC(c4n[nH]c(-c5ccccn5)n4)CC3)cc2)cc1 [Example 7, 2-cyclobutyl-6-phenyl-5-(4-{[4-(5-pyridin-2-yl-1,2,4-triazol-3-yl)piperidin-1-yl]methyl}phenyl)[1,2,4]triazolo[1,5-a]pyrimidine]",> 10,< 10
,,"c1ccc(-c2cn3ccnc3nc2-c2ccc(CN3CCC(c4nc(-c5ccccn5)n[nH]4)CC3)cc2)cc1 [Example 1, 6-phenyl-7-(4-{[4-(3-pyridin-2-yl-1,2,4-triazol-5-yl)piperidin-1-yl]methyl}phenyl)imidazo[1,2-a]pyrimidine]",> 10,< 10
,,"c1ccc(-c2cn3nc(C4CC4)nc3nc2-c2ccc(CN3CCC(c4n[nH]c(-c5ccccn5)n4)CC3)cc2)cc1 [Example 4, 2-cyclopropyl-6-phenyl-5-(4-{[4-(5-pyridin-2-yl-1,2,4-triazol-3-yl)piperidin-1-yl]methyl}phenyl)[1,2,4]triazolo[1,5-a]pyrimidine]",< 10,< 10
,,"C#Cc1cnc2nc(-c3ccc(CN4CCC(c5n[nH]c(-c6ccccn6)n5)CC4)cc3)c(-c3ccccc3)cn12 [Example 13, 3-ethynyl-6-phenyl-7-(4-{[4-(5-pyridin-2-yl-1,2,4-triazol-3-yl)piperidin-1-yl]methyl}phenyl)imidazo[1,2-a]pyrimidine]",< 10,< 10
,< 1,"Cc1nc2nc(-c3ccc(CN4CCC(c5n[nH]c(-c6ncccn6)n5)CC4)cc3)c(-c3ccccc3)cn2n1 [Example 45, 2-Methyl-6-phenyl-5-(4-{[4-(5-pyrimidin-2-yl-1H-1,2,4-triazol-3-yl)piperidin-1-yl]methyl}phenyl)[1,2,4]triazolo[1,5-a]pyrimidine]",> 10,
,< 1,"FC(F)(F)c1cn2cc(-c3ccccc3)c(-c3ccc(CN4CCC(c5n[nH]c(-c6ccccn6)n5)CC4)cc3)nc2n1 [Example 26, 6-phenyl-7-(4-{[4-(5-pyridin-2-yl-1H-1,2,4-triazol-3-yl)piperidin-1-yl]methyl}phenyl)-2-(trifluoromethyl)imidazo[1,2-a]pyrimidine]",< 10,
